According to US10316017B2, “COT modulators and methods of use thereof” (Gilead Sciences, Inc., priority 2015, dated 2019):
pEC50, pIC50: −log10 of the molar value.

Assays:
[1] = tested on: TNFα production in LPS-stimulated human monocytes; test: Cot Monocyte TNFα Cell Based Assay; details: Homo sapiens, Monocyte, LPS-stimulated human monocytes, TNFα TR-FRET; read-out: EC50 TNF
Procedure, shortened: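 Cells at 5,000/well were pretreated with compound for 1 h at 37 °C (0.5% DMSO final), then stimulated with 50 pg/ml LPS for 4 h at 37 °C. Supernatant TNFα was measured by two-antibody TR-FRET after overnight room-temperature incubation; values are percent of control between unstimulated and stimulated wells.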

[2] = molecular target: T1, human Cot catalytic domain (30-397 amino acids) (Homo sapiens, UniProt P41279); test: High Throughput Cot Biochemical Assay (KinEASE TR-FRET); details: Cot KinEASE TR-FRET, 400 μM ATP; read-out: IC50 HTRF
T1 construct: Purified recombinant human Cot catalytic domain (30-397 amino acids) was purchased from Cama Biosciences; purchased Cama Biosciences (so in the source)
Procedure, shortened: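 Reaction of 5 nM recombinant human Cot catalytic domain (aa 30-397) with 1 μM STK3 peptide (XL665-labeled) and 400 μM ATP in 10 mM MOPS pH 7.0, 10 mM MgOAc, 1 mM DTT, 0.5 mg/mL BSA, 0.1% DMSO. Phosphopeptide detected by TR-FRET with europium anti-phospho antibody.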

T1 sequence (P41279 30-397): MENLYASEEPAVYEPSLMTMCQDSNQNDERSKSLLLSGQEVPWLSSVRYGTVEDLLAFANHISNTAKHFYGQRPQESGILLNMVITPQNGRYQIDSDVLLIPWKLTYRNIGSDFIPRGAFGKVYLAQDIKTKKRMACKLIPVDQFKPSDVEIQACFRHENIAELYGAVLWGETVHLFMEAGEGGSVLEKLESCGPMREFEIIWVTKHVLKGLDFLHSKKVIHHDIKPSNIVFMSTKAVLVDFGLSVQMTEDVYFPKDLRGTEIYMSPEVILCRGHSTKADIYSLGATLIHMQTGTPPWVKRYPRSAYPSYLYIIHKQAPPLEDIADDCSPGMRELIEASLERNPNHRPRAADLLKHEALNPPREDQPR

SMILES | pEC50 [1] | pIC50 [2]
Cc1c(-c2cn(C)cn2)cccc1[C@H](Nc1cc(C#N)c2ncc(C#N)c(NCC(C)(C)C)c2c1)c1cn(C2(C(F)(F)F)CC2)nn1 [Example 1145, (S)-6-(((2-methyl-3-(1-methyl-1H-imidazol-4-yl)phenyl)(1-(1-(trifluoromethyl)cyclopropyl)-1H-1,2,3-triazol-4-yl)methyl)amino)-4-(neopentylamino)quinoline-3,8-dicarbonitrile] | 7.00 | 8.30
Cc1c(C#N)cccc1[C@H](Nc1cc(C#N)c2ncc(C#N)c(NCC(C)(C)C(F)(F)F)c2c1)c1cn(C2(C)CC2)nn1 [Example 1146, (S)-6-(((3-cyano-2-methylphenyl)(1-(1-methylcyclopropyl)-1H-1,2,3-triazol-4-yl)methyl)amino)-4-((3,3,3-trifluoro-2,2-dimethylpropyl)amino)quinoline-3,8-dicarbonitrile] | 7.48 | 8.70
Cc1c(C#N)cccc1[C@H](Nc1cc(C#N)c2ncc(C#N)c(NCC(C)(C)C)c2c1)c1cn(C2(CF)CC2)nn1 [Example 1147, (S)-6-(((3-cyano-2-methylphenyl)(1-(1-(fluoromethyl)cyclopropyl)-1H-1,2,3-triazo1-4-yl)methyl)amino)-4-(neopentylamino)quinoline-3,8-dicarbonitrile] | 7.82 | 8.70
Cc1c(C#N)cccc1[C@H](Nc1cc(C#N)c2ncc(C#N)c(NCC(C)(C)C)c2c1)c1cn(C2(C)CC2)nn1 [Example 1148, (S)-6-(((3-cyano-2-methylphenyl)(1-(1-methylcyclopropyl)-1H-1,2,3-triazol-4-yl)methyl)amino)-4-(neopentylamino)quinoline-3,8-dicarbonitrile] | 7.70 | 8.70
Cc1c(C#N)cccc1[C@H](Nc1cc(C#N)c2ncc(C#N)c(NCC(C)(C)C)c2c1)c1cn(C(CF)CF)nn1 [Example 1149, (S)-6-(((3-cyano-2-methylphenyl)(1-(1,3-difluoropropan-2-yl)-1H-1,2,3-triazol-4-yl)methyl)amino)-4-(neopentylamino)quinoline-3,8-dicarbonitrile] | 7.35 | 8.40
Cc1c(C#N)cccc1[C@H](Nc1cc(C#N)c2ncc(C#N)c(NCC(C)(C)C)c2c1)c1cn([C@@H](C)CF)nn1 [Example 1150, 6-(((S)-(3-cyano-2-methylphenyl)(1-((S)-1-fluoropropan-2-yl)-1H-1,2,3-triazol-4-yl)methyl)amino)-4-(neopentylamino)quinoline-3,8-dicarbonitrile] | 7.57 | 8.70
Cc1c(C#N)cccc1[C@H](Nc1cc(C#N)c2ncc(C#N)c(NCC(C)(C)C(F)(F)F)c2c1)c1cn(C23CC(C2)C3)nn1 [Example 1151, (S)-6-(((1-(bicyclo[1.1.1]pentan-1-yl)-1H-1,2,3-triazol-4-yl)(3-cyano-2-methylphenyl)methyl)amino)-4-((3,3,3-trifluoro-2,2-dimethylpropyl)amino) quinoline-3,8-dicarbonitrile] | 7.44 | 8.70
Cc1c(C#N)cccc1[C@H](Nc1cc(C#N)c2ncc(C#N)c(NCC(C)(C)C(F)(F)F)c2c1)c1cn(C2(C3CC3)CC2)nn1 [Example 1152, (S)-6-(((1-([1,1'-bi(cyclopropan)]-1-yl)-1H-1,2,3-triazol-4-yl)(3-cyano-2-methylphenyl)methyl)amino)-4-((3,3,3-trifluoro-2,2-dimethylpropyl)amino)quinoline-3,8-dicarbonitrile] | 7.31 | 8.52
Cc1c(-c2cn[nH]c2)cccc1[C@H](Nc1cc(C#N)c2ncc(C#N)c(NCC(C)(C)C)c2c1)c1cn(C2(C(F)F)CC2)nn1 [Example 1153, (S)-6-(((1-(1-(difluoromethyl)cyclopropyl)-1H-1,2,3-triazol-4-yl)(2-methyl-3-(1H-pyrazol-4-yl)phenyl)methyl)amino)-4-(neopentylamino)quinoline-3,8-dicarbonitrile] | 7.38 | 8.70
Cc1c(-c2cncn2C)cccc1[C@H](Nc1cc(C#N)c2ncc(C#N)c(NCC(C)(C)C)c2c1)c1cn(C2(C(F)F)CC2)nn1 [Example 1154, (S)-6-(((1-(1-(difluoromethyl)cyclopropyl)-1H-1,2,3-triazol-4-yl)(2-methyl-3-(1-methyl-1H-imidazol-5-yl)phenyl)methyl)amino)-4-(neopentylamino)quinoline-3,8-dicarbonitrile] | 7.35 | 8.70
Cc1c(-c2ccnnc2)cccc1[C@H](Nc1cc(C#N)c2ncc(C#N)c(NCC(C)(C)C)c2c1)c1cn(C2(C(F)F)CC2)nn1 [Example 1155, (S)-6-(((1-(1-(difluoromethyl)cyclopropyl)-1H-1,2,3-triazol-4-yl)(2-methyl-3-(pyridazin-4-yl)phenyl)methyl)amino)-4-(neopentylamino)quinoline-3,8-dicarbonitrile] | 7.22 | 9.00
Cc1c(C#N)cccc1[C@H](Nc1cc(C#N)c2ncc(C#N)c(NCC(C)(C)C)c2c1)c1cn(C23CC(C2)C3)nn1 [Example 1156, (S)-6-(((1-(bicyclo[1.1.1]pentan-1-yl)-1H-1,2,3-triazol-4-yl)(3-cyano-2-methylphenyl)methyl)amino)-4-(neopentylamino)quinoline-3,8-dicarbonitrile] | 7.89 | 9.00
Cc1c(C#N)cccc1[C@H](Nc1cc(C#N)c2ncc(C#N)c(NCC(C)(C)C)c2c1)c1cn(C2(C3CC3)CC2)nn1 [Example 1157, (S)-6-(((1-([1,1'-bi(cyclopropan)]-1-yl)-1H-1,2,3-triazol-4-yl)(3-cyano-2-methylphenyl)methyl)amino)-4-(neopentylamino)quinoline-3,8-dicarbonitrile] | 7.82 | 8.52
Cc1c(-c2cnco2)cccc1[C@H](Nc1cc(C#N)c2ncc(C#N)c(NCC(C)(C)C)c2c1)c1cn(C2(C(F)F)CC2)nn1 [Example 1158, (S)-6-(((1-(1-(difluoromethyl)cyclopropyl)-1H-1,2,3-triazol-4-yl)(2-methyl-3-(oxazol-5-yl)phenyl)methyl)amino)-4-(neopentylamino)quinoline-3,8-dicarbonitrile] | 7.59 | 8.70
CC(C)(C)CNc1c(C#N)cnc2c(C#N)cc(N[C@@H](c3ccccc3Cl)c3nnn(C4(C)CC4)c3F)cc12 [Example 1159, (S)-6-(((2-chlorophenyl)(5-fluoro-1-(1-methylcyclopropyl)-1H-1,2,3-triazol-4-yl)methyl)amino)-4-(neopentylamino)quinoline-3,8-dicarbonitrile] | 6.38 | 7.30
COc1c([C@@H](Nc2cc(C#N)c3ncc(C#N)c(NCC(C)(C)C)c3c2)c2ccccc2Cl)nnn1C1(C)CC1 [Example 1160, (S)-6-(((2-chlorophenyl)(5-methoxy-1-(1-methylcyclopropyl)-1H-1,2,3-triazol-4-yl)methyl)amino)-4-(neopentylamino)quinoline-3,8-dicarbonitrile] | 6.03 | 7.15
Cc1nnc(C2(n3cc([C@@H](Nc4cc(C#N)c5ncc(C#N)c(NCC(C)(C)C)c5c4)c4ccccc4Cl)nn3)CC2)o1 [Example 1161, (S)-6-(((2-chlorophenyl)(1-(1-(5-methyl-1,3,4-oxadiazol-2-yl)cyclopropyl)-1H-1,2,3-triazol-4-yl)methyl)amino)-4-(neopentylamino)quinoline-3,8-dicarbonitrile] | 7.35 | 7.85
Cc1c(-c2ccn(C)n2)cccc1[C@H](Nc1cc(Cl)c2ncc(C#N)c(NCC(C)(C)C)c2c1)c1cn(C2(C(F)(F)F)CC2)nn1 [Example 1162, (S)-8-chloro-6-(((2-methyl-3-(1-methyl-1H-pyrazol-3-yl)phenyl) (1-(1-(trifluoromethyl)cyclopropyl)-1H-1,2,3-triazol-4-yl)methyl)amino)-4-(neopentylamino)quinoline-3-carbonitrile] | 6.32 | 7.80
Cc1c(-c2cc[nH]n2)cccc1[C@H](Nc1cc(Cl)c2ncc(C#N)c(NCC(C)(C)C)c2c1)c1cn(C2(C(F)(F)F)CC2)nn1 [Example 1163, (S)-8-chloro-6-(((2-methyl-3-(1H-pyrazol-3-yl)phenyl)(1-(1-(trifluoromethyl)cyclopropyl)-1H-1,2,3-triazol-4-yl)methyl)amino)-4-(neopentylamino)quinoline-3-carbonitrile] | 6.33 | 7.72
Cc1c(-c2cn[nH]c2)cccc1[C@H](Nc1cc(Cl)c2ncc(C#N)c(NCC(C)(C)C)c2c1)c1cn(C2(C(F)(F)F)CC2)nn1 [Example 1164, (S)-8-chloro-6-(((2-methyl-3-(1H-pyrazol-4-yl)phenyl) (1-(1-(trifluoromethyl)cyclopropyl)-1H-1,2,3-triazol-4-yl)methyl)amino)-4-(neopentylamino) quinoline-3-carbonitrile] | 7.18 | 7.89
Cc1c(-c2cnco2)cccc1[C@H](Nc1cc(Cl)c2ncc(C#N)c(NCC(C)(C)C)c2c1)c1cn(C2(C(F)(F)F)CC2)nn1 [Example 1165, (S)-8-chloro-6-(((2-methyl-3 (oxazol-5-yl)phenyl)(1-(1-(trifluoromethyl)cyclopropyl)-1H-1,2,3-triazol-4-yl)methyl)amino)-4-(neopentylamino)quinoline-3-carbonitrile] | 6.99 | 8.05
